Common to all, as to assay type: biochemical
Assay [1] deals with ROCK I (AA 6-553) (Homo sapiens, UniProt Q13464). As to the kind of experiment: ROCK inhibition assay, coupled enzyme system ("Enzyme"). To be noted: enzyme-linked assay; average Ki if more than one determined. As to the method:
Reactions were carried out in a solution containing 100 mM HEPES (pH 7.5), 10 mM MgCl2, 25 mM NaCl, 2 mM DTT and 1.5% DMSO.
(§1) If more than one value of Ki has been determined, the average Ki is indicated. If no value is indicated, then the Ki was not determined.

In assay [2] the target is PKA (Homo sapiens, UniProt P17612). As to the kind of experiment: PKA inhibition assay, coupled enzyme. As to conditions: average Ki if more than one determined. The procedure, abridged: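 Coupled PK/LDH assay following NADH depletion: 18 nM PKA, 50 μM ATP, 80 μM Kemptide in 100 mM HEPES pH 7.5, 10 mM MgCl2, 25 mM NaCl, 1 mM DTT, 3% DMSO, at 30 °C. Compound preincubated 10 min before ATP start; initial rates over 15 min, IC50 and Ki by non-linear regression.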

Assay [3] deals with ROCK (Homo sapiens, UniProt Q13464). As to the kind of experiment: ROCK radioactive assay ("33P"). As to conditions: radioactive assay; average Ki if more than one determined; read-out: ROCK 33P Ki.
Sequence of ROCK (Q13464 whole entry): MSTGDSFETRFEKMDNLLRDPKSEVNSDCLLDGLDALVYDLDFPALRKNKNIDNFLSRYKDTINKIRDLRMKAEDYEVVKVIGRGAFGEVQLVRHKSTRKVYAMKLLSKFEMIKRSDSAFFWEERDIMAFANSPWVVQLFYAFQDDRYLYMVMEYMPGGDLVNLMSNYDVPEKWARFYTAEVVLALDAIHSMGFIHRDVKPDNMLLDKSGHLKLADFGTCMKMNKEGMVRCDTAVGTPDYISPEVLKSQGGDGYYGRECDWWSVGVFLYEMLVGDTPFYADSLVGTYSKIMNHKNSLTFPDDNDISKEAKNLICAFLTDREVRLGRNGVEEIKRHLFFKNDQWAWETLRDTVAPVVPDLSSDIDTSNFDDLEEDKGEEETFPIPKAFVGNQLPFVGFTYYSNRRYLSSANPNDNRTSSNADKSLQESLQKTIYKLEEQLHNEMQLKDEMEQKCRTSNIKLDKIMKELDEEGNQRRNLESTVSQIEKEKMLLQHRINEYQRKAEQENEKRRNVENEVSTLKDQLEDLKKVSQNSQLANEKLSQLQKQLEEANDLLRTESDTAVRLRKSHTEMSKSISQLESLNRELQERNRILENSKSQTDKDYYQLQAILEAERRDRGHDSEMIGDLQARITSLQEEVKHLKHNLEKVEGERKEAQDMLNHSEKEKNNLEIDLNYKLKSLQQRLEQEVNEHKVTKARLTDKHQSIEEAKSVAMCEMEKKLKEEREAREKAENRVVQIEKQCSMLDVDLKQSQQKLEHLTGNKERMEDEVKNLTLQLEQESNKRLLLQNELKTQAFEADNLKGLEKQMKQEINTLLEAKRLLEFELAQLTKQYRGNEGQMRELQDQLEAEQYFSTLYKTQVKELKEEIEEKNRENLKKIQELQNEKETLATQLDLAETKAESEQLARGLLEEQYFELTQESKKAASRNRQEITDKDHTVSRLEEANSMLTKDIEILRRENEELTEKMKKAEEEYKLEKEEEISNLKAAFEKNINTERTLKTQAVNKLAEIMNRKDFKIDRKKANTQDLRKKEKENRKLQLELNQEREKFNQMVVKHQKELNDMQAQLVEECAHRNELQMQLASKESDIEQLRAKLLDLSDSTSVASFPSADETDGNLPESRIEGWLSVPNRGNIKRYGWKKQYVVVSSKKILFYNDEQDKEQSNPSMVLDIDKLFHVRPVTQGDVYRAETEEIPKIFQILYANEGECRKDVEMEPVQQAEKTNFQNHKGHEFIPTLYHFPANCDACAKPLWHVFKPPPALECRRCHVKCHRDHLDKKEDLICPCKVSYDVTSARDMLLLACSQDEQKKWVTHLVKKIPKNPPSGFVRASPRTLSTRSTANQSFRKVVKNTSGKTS
Description: as §1

In assay [4] the target is T1, Itk (Homo sapiens, UniProt Q08881).
T1 sequence (Q08881 1-620): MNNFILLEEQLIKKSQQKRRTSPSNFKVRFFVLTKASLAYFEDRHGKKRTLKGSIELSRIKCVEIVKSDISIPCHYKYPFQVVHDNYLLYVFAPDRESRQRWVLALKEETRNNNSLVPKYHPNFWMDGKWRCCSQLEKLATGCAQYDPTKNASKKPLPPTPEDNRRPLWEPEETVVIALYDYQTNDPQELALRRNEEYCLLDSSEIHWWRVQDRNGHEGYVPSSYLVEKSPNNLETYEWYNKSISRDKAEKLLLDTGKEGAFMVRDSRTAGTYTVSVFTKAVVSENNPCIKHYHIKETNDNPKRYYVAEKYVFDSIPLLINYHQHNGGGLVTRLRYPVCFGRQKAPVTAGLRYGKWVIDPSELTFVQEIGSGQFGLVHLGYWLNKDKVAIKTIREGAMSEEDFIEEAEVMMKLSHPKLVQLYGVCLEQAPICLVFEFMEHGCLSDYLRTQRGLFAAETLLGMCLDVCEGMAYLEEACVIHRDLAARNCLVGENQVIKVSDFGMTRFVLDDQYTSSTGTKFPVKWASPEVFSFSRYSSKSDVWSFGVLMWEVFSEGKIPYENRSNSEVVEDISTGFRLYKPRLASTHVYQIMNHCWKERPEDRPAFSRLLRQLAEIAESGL
Briefly: Itk inhibition assay, coupled enzyme. To be noted: average Ki if more than one determined. As to the method:
Compounds were screened for their ability to inhibit Itk using a standard coupled enzyme assay (Fox et al., Protein Sci., (1998) 7, 2249). Assays were carried out in a mixture of 20 mM MOPS (pH 7.0), 10 mM MgCl2, 0.1% BSA, 1 mM DTT, 2.5 mM phosphoenolpyruvate, 300 μM NADH, 30 μg/ml pyruvate kinase and 10 μg/ml lactate dehydrogenase. Final substrate concentrations in the assay were 100 μM ATP (Sigma Chemicals) and 3 μM peptide (Biotinylated SAM68 D332-443). Assays were carried out at 25° C. and in the presence of 100 nM Itk.
An assay stock buffer solution was prepared containing all of the reagents listed above, with the exception of ATP and the test compound of interest. 60 μl of the stock solution was placed in a 96 well plate followed by addition of 2 μl of DMSO stock containing serial dilutions of the test compound (typically starting from a final concentration of 15 μM). The plate was preincubated for 10 minutes at 25° C. and the reaction initiated by addition of 5 μl of ATP. Initial reaction rates were determined with a Molecular Devices SpectraMax Plus plate reader over a 10 minute time course. IC50 and Ki data were calculated from non-linear regression analysis using the Prism software package (GraphPad Prism version 3.0cx for Macintosh, GraphPad Software, San Diego Calif., USA).

Our source for the Ki values is patent US7514448B2, “Azaindoles useful as inhibitors of rock and other protein kinases” (Vertex Pharmaceuticals Incorporated, priority 2004, dated 2009).

Structures are written as SMILES.

Sequence of ROCK I (AA 6-553) (Q13464 6-553, species assumed): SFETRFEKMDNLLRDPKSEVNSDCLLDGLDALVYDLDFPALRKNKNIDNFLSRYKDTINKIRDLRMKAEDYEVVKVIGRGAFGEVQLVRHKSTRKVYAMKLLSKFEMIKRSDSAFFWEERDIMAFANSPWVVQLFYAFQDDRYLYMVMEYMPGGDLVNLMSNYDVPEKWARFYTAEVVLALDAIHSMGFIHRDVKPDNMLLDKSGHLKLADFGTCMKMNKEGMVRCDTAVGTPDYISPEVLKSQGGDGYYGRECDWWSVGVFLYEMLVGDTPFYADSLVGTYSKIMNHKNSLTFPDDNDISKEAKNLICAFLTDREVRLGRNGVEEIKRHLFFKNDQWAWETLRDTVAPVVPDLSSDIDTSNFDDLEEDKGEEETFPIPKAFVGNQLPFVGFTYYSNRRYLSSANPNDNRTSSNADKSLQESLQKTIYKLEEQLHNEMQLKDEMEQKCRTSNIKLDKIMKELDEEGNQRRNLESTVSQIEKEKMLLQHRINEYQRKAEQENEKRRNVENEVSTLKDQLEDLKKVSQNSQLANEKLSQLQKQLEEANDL

Regarding `O=C(Cc1cccc(S(=O)(=O)NCCCN2CCNCC2)c1)Nc1nc(-c2c[nH]c3ncccc23)cs1` [II-123], the Ki in assay [1], in assay [2] and in assay [3] was below 500 nM in each case.

In the case of `O=C(CCC1CCCCC1)Nc1nc(-c2c[nH]c3ncc(Br)cc23)cs1` [II-251], the Ki in assay [2] was below 500 nM; in assay [3] it was 500 to 5000 nM; in assay [4], 500 to 5000 nM.

As to `O=C(CCc1ccccc1)N(c1nc(-c2c[nH]c3ncccc23)cs1)C1CC1` [II-54], the Ki in assay [1] was below 500 nM; in assay [2], below 500 nM; in assay [4], 500 to 5000 nM.

As to `O=C(Nc1nc(-c2c[nH]c3ncc(Br)cc23)cs1)C1Cc2ccccc2C1` [II-246], the Ki in assay [2] was 500 to 5000 nM; in assay [3] it was below 500 nM; in assay [4] it was 500 to 5000 nM.

`COc1cccc(CC(=O)Nc2nc(-c3c[nH]c4ncc(F)cc34)cs2)c1` [II-119]: the Ki in assay [1], in assay [2] and in assay [3] was below 500 nM in each case.

Consider `CS(=O)(=O)Nc1cccc(CC(=O)Nc2nc(-c3c[nH]c4ncc(F)cc34)cs2)c1` [II-120], for which the Ki in assay [1], in assay [2] and in assay [3] was below 500 nM each time.

For `O=C(Nc1nc(-c2c[nH]c3ncc(Br)cc23)cs1)C1CC1` [II-247], the Ki was 500 to 5000 nM in assay [2], below 500 nM in assay [3] and 500 to 5000 nM in assay [4].

Take `O=C(NCC1CCNCC1)c1nc(-c2c[nH]c3ncc(-c4ccccc4)cc23)cs1` [II-245]: the Ki in assay [2] was 500 to 5000 nM; in assay [3], below 500 nM; in assay [4] it was 500 to 5000 nM.

As for `CS(=O)(=O)Nc1cccc(CNC(=O)c2csc(-c3c[nH]c4ncccc34)c2)c1` [II-117], the Ki in assay [1], in assay [2] and in assay [3] was below 500 nM in each case.

On to `CN1CCN(CCCNS(=O)(=O)c2cccc(CC(=O)Nc3nc(-c4c[nH]c5ncccc45)cs3)c2)CC1` [II-125], for which the Ki in assay [1], in assay [2] and in assay [3] was below 500 nM throughout.

Regarding `O=C(Cc1cccc(S(=O)(=O)N2CCOCC2)c1)Nc1ccc(-c2c[nH]c3ncccc23)s1` [II-129], the results for the Ki in assay [1], in assay [2] and in assay [3] were below 500 nM, 500 to 5000 nM and below 500 nM, respectively.

`O=C(Nc1nc(-c2c[nH]c3ncc(Br)cc23)cs1)C1CCOC1` (centres unmarked) [II-252]: the Ki in assay [2] was 500 to 5000 nM; in assay [3] it was below 500 nM; in assay [4], 500 to 5000 nM.

Turning to `O=C(CCNC(=O)OCc1ccccc1)Nc1nc(-c2c[nH]c3ncc(Br)cc23)cs1` [II-255], the Ki in assay [2] and in assay [4] was 500 to 5000 nM in each case.

With `O=C(CC1CCCC1)Nc1nc(-c2c[nH]c3ncc(Br)cc23)cs1` [II-248], the Ki is below 500 nM in assay [2], 500 to 5000 nM in assay [3] and 500 to 5000 nM in assay [4].

`O=C(Cc1ccccc1)Nc1nc(-c2c[nH]c3ncccc23)cs1` [I-1]: the Ki in assay [2] was below 500 nM; in assay [4] it was 500 to 5000 nM.

`COc1cccc(CC(=O)Nc2ccc(-c3c[nH]c4ncccc34)s2)c1` [II-127]: the Ki in assay [1], in assay [2] and in assay [3] was below 500 nM in each case.

Turning to `CN1CCN(S(=O)(=O)c2cccc(CC(=O)Nc3nc(-c4c[nH]c5ncccc45)cs3)c2)CC1` [II-51], the Ki in assay [1], in assay [2] and in assay [3] was below 500 nM each time.

Regarding `O=C(CCc1ccccc1)Nc1nc(-c2c[nH]c3ncc(Br)cc23)cs1` [II-249], the Ki in assay [2] is 500 to 5000 nM; in assay [3] it was below 500 nM; in assay [4] it was 500 to 5000 nM.

Turning to `O=C(Cc1ccc(Br)cc1)Nc1nc(-c2c[nH]c3ncc(Br)cc23)cs1` [II-250], the Ki in assay [2] was below 500 nM; in assay [4], 500 to 5000 nM.

Regarding `CN1CCN(CCOc2ccc(CC(=O)Nc3nc(-c4c[nH]c5ncccc45)cs3)c(Cl)c2)CC1` [II-109], the Ki was below 500 nM in assay [1], 500 to 5000 nM in assay [2] and below 500 nM in assay [3].

As to `N#CCC(=O)Nc1nc(-c2c[nH]c3ncccc23)cs1` [II-116], the Ki in assay [1], in assay [2] and in assay [3] was below 500 nM each time.

As for `O=C(Cc1cccc(S(=O)(=O)NCCCN2CCOCC2)c1)Nc1nc(-c2c[nH]c3ncccc23)cs1` [II-126], the Ki in assay [1], in assay [2] and in assay [3] was below 500 nM each time.

With `O=C(CCS(=O)(=O)c1ccccc1)Nc1nc(-c2c[nH]c3ncc(Br)cc23)cs1` [II-253], the inhibition constant Ki was below 500 nM in assay [2], 500 to 5000 nM in assay [3] and 500 to 5000 nM in assay [4].

Take `O=C(CCOc1ccccc1)Nc1nc(-c2c[nH]c3ncc(Br)cc23)cs1` [II-254]: the Ki in assay [2] was 500 to 5000 nM; in assay [3], below 500 nM; in assay [4], 500 to 5000 nM.

On to `O=C(Cc1ccc(OCCN2CCNCC2)cc1Cl)Nc1nc(-c2c[nH]c3ncccc23)cs1` [II-108], for which the inhibition constant (Ki) was below 500 nM in assay [1], 500 to 5000 nM in assay [2] and below 500 nM in assay [3].

With `CS(=O)(=O)Nc1cccc(CNC(=O)c2ccc(-c3c[nH]c4ncccc34)s2)c1` [II-115], the Ki in assay [1], in assay [2] and in assay [3] was below 500 nM each time.

With `CC(C)C(=O)Nc1nc(-c2c[nH]c3ncccc23)cs1` [II-162], the Ki in assay [2] was 500 to 5000 nM; in assay [3], below 500 nM; in assay [4], 500 to 5000 nM.

Regarding `COc1cccc(CNC(=O)c2csc(-c3c[nH]c4ncccc34)c2)c1` [II-114], the Ki in assay [1], in assay [2] and in assay [3] was below 500 nM each time.

In the case of `O=C(Cc1cccc(S(=O)(=O)N2CCC(O)C2)c1)Nc1nc(-c2c[nH]c3ncccc23)cs1` (centres unmarked) [II-124], the Ki in assay [1], in assay [2] and in assay [3] was below 500 nM in each case.

In assay [4], `CCN(C(=O)CC1CCCC1)c1nc(-c2c[nH]c3ncc(Br)cc23)cs1` [II-256] returned a Ki of 500 to 5000 nM.

With `O=C(Cc1ccccc1)Nc1nc(-c2c[nH]c3ncc(F)cc23)cs1` [II-118], the Ki in assay [1], in assay [2] and in assay [3] was below 500 nM in each case.

For the compound `CN1CCN(CCCOc2ccc(CC(=O)Nc3nc(-c4c[nH]c5ncccc45)cs3)c(Cl)c2)CC1` [II-111], the Ki in assay [1] is below 500 nM; in assay [2], 500 to 5000 nM; in assay [3] it was below 500 nM.

As to `O=C(Cc1ccc(F)cc1F)Nc1nc(-c2c[nH]c3ncc(F)cc23)cs1` [II-122], the Ki in assay [1], in assay [2] and in assay [3] was below 500 nM throughout.

With `O=C(Cc1cccc(S(=O)(=O)N2CCOCC2)c1)Nc1nc(-c2c[nH]c3ncc(F)cc23)cs1` [II-121], the Ki in assay [1] was below 500 nM; in assay [2] it was 500 to 5000 nM; in assay [3] it was below 500 nM.

As to `O=C(Cc1ccc(OCCCN2CCNCC2)cc1Cl)Nc1nc(-c2c[nH]c3ncccc23)cs1` [II-110], the Ki is below 500 nM in assay [1], 500 to 5000 nM in assay [2] and below 500 nM in assay [3].

For the compound `CS(=O)(=O)Nc1cccc(CC(=O)Nc2ccc(-c3c[nH]c4ncccc34)s2)c1` [II-128], the Ki in assay [1], in assay [2] and in assay [3] was below 500 nM in each case.

Consider `O=C(Cc1cccc(S(=O)(=O)N2CCOCC2)c1)Nc1csc(-c2c[nH]c3ncccc23)n1` [II-57], for which the Ki in assay [1] is below 500 nM; in assay [2], 500 to 5000 nM.

With `CN(C)CCN(C)S(=O)(=O)c1cccc(CC(=O)Nc2nc(-c3c[nH]c4ncccc34)cs2)c1` [II-90], the Ki in assay [1] and in assay [2] was below 500 nM in each case.
